This is an account of results in article PMC7436063, “Bioactive Chemical Composition of Cannabis Extracts and Cannabinoid Receptors” (Molecules, 2020).

The target of experiment [1] is T1, CB1 (Homo sapiens, UniProt P21554).
T1 construct: gene CNR1; expressed in CHO-K1-CB1 cell line (DiscoverX), cAMP reporter platform
In words: cAMP assay (HitHunter), inhibition of forskolin-stimulated cAMP in CHO-K1-CB1 cells. Type of experiment: cell-based. The text has this: cAMP assay (HitHunter), inhibition of forskolin-stimulated cAMP in CHO-K1-CB1 cells on CB1
Background: Cyclic AMP is a second messenger, typically raised through Gs and lowered through Gi signalling.

Experiment [2] has as its target T2, CB2 (Homo sapiens, UniProt P34972).
T2 construct: gene CNR2; expressed in CHO-K1-CB2 cell line (DiscoverX), cAMP reporter platform
In words: cAMP assay (HitHunter), inhibition of forskolin-stimulated cAMP in CHO-K1-CB2 cells. Type of experiment: cell-based. The text has this: cAMP assay (HitHunter), inhibition of forskolin-stimulated cAMP in CHO-K1-CB2 cells on CB2

The mark [3] stands for this setting: read-out: Receptor Potency (μM) / ^b IC50 (Antagonist) / CB1.

T1 sequence (P21554 whole entry): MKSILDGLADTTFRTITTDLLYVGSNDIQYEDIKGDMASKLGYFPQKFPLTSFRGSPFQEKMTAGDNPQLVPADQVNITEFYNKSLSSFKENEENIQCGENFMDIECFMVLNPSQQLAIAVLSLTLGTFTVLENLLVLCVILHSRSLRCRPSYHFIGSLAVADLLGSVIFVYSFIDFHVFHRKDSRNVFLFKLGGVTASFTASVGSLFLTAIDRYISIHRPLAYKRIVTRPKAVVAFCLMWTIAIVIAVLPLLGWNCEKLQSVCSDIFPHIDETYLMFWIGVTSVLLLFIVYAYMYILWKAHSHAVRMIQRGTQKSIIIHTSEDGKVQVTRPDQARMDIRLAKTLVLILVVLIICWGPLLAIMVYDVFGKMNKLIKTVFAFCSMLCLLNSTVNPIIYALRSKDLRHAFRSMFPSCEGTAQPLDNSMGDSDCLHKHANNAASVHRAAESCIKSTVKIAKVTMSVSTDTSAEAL
T2 sequence (P34972 whole entry): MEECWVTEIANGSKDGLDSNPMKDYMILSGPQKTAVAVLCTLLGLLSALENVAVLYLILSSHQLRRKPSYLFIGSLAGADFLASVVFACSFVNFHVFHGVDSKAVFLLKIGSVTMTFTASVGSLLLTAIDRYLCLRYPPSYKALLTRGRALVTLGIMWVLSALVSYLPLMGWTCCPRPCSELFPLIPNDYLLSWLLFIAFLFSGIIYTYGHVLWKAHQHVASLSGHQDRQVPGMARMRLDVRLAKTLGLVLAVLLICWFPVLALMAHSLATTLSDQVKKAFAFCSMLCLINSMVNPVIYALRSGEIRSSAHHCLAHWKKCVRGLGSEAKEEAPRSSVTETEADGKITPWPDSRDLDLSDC

As to `C=C(C)[C@@H]1CCC(C)=C[C@H]1c1c(O)cc(CCCCC)c(C(=O)O)c1O` [CBDA], the EC50 in experiment [1] (read-out: Receptor Potency (μM) / ^a EC50 (Agonist) / CB1) came out at 17 ± 3 µM; in experiment [2] (read-out: Receptor Potency (μM) / ^a EC50 (Agonist) / CB2), 17 ± 4 µM. Moreover, the IC50 in experiment [1] (setting [3]) and in experiment [2] (setting [3]) was > 10 µM throughout.
